Measurements as given in patent US8293729B2 (Boehringer Ingelheim International GmbH, priority 2009, dated 2012).
Where two headings read alike, the source gives them in different places.

Biological target: T1, human GPR119 receptor (Homo sapiens, UniProt Q8TDV5, S329A/T327A)
T1 construct: N-terminal leader […]; expressed in transfected cells
T1 sequence (Q8TDV5 with tags, fused parts or gaps T327A/S329A): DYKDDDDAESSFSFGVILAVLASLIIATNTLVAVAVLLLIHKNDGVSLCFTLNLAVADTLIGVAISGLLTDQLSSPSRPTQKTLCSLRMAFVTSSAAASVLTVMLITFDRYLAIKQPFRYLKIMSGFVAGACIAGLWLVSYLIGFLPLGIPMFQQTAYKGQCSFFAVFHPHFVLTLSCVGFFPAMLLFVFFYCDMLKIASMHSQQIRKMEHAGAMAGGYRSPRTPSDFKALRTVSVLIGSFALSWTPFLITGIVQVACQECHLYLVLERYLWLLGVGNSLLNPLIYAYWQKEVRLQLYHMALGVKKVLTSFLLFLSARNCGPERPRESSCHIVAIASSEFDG
Test: cAMP assay (LANCE cAMP-384) in HEK293 cells stably expressing mutant human GPR119 receptor
Format: cell-based
Conditions: for activation at 10 µM: HEK293, 20 min, single concentration 10 μM, given where no EC50 value could be determined, read-out: % stimulation at 10 μM
How it was run: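 HEK293 cells stably expressing human GPR119 (T327A/S329A, modified N-terminus), 1000 cells/well, exposed to compound for 20 min at 37° C. cAMP quantified by LANCE TR-FRET against a standard curve; EC50 from 12 points, 30 μM to 100 pM, or % stimulation at 10 μM.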

[1] = the 36th table, compounds 66-1 to 66-51, read-out: EC50
[2] = cAMP accumulation, HEK293 cells stably expressing mutant human GPR119, read-out: EC50
[3] = the 34th table, compounds 65-1 to 65-24, read-out: EC50
[4] = the 19th table, unit inferred, read-out: EC 50
[5] = the 38th table, compounds 66-65 to 66-72, read-out: EC50
[6] = the 37th table, compounds 66-52 to 66-64, read-out: EC50
[7] = the 43rd table, compounds 75-1 to 75-38, read-out: EC50

## CS(=O)(=O)c1ccc(N2CCC(=NOC3CCN(Cc4ccc(Br)cc4F)CC3)CC2)c(F)c1 [Example 66-44]
[1]
  EC50: 753 nM

## CC(C)OC(=O)N1CCC(ON=C2CCN(c3cc(F)c(-c4ccncc4)cc3F)CC2)CC1 [Example 27-5]
[2]
  EC50: 378 nM

## CS(=O)(=O)c1ccc(N2CCC(=NOC3CCN(C(=O)OCCN4CCOCC4)CC3)CC2)c(F)c1 [Example 64-43]
The 33rd table, read-out: EC50
  EC50: > 10000 nM

## CC(C)OC(=O)N1CCC(ON=C2CCN(c3cc(F)c(-c4nccs4)cc3F)CC2)CC1 [Example 27-18]
[2]
  EC50: 137 nM

## CC(C)OC(=O)N1CCC(ON=C2CCN(c3cc(F)c(CN4CCOCC4)cc3F)CC2)CC1 [Example 5-4]
  activation at 10 µM: 69%

## CC(C)OC(=O)N1CCC(ON=C2CCN(c3ccnc(O)c3)CC2)CC1 [Example 2-4]
[2]
  EC50: > 10000 nM

## CS(=O)(=O)c1ccc(N2CCC(=NOC3CCN(C(=O)N4CCCCC4)CC3)CC2)c(F)c1 [Example 73-1, 1-(2-FLUORO-4-METHANESULFONYL-PHENYL)-PIPERIDIN-4-ONE O-[1-(PIPERIDINE-1-CARBONYL)-PIPERIDIN-4-YL]-OXIME]
The 41st table, compounds 73-1, 73-2, unit inferred, read-out: EC50
  EC50: 425 nM

## CS(=O)(=O)c1ccc(N2CCC(=NOC3CCN(Cc4cscn4)CC3)CC2)c(F)c1 [Example 66-11]
[1]
  EC50: > 10000 nM

## CC(C)OC(=O)N1CCC(ON=C2CCN(c3ccccc3)CC2)CC1 [Example 32-1, 4-(1-Phenyl-piperidin-4-ylideneaminooxy)-piperidine-1-carboxylic acid isopropyl ester]
[2]
  EC50: > 10000 nM

## CC1CC1COC(=O)N1CCC(ON=C2CCN(c3ccc(S(C)(=O)=O)cc3F)CC2)CC1 (stereo not shown) [Example 64-8]
The 33rd table, read-out: EC50
  EC50: 32 nM

## CCc1cnc(-c2cc(F)c(N3CCC(=NOC4CCN(C(=O)OC(C)C)CC4)CC3)cc2F)nc1 [Example 27-21]
[2]
  EC50: 509 nM

## CC(C)NC(=O)CN1CCC(ON=C2CCN(c3ccc(S(C)(=O)=O)cc3F)CC2)CC1 [Example 65-4]
[3]
  EC50: > 10000 nM

## CCc1cnc(N2CCC(ON=C3CCN(c4cc(F)c(C(=O)NCC5CCCN5)cc4F)CC3)CC2)nc1 (stereo not shown) [Example 29-121]
[4]
  EC50: 139 nM

## Cc1nc(N2CCC(=NOC3CCN(C(=O)OC(C)C)CC3)CC2)c(F)cc1CO [Example 55-1, 4-(3′-Fluoro-5′-hydroxymethyl-6′-methyl-2,3,5,6-tetrahydro-[1,2′]bipyridinyl-4-ylideneaminooxy)-piperidine-1-carboxylic acid isopropyl ester]
[2]
  EC50: 206 nM

## CS(=O)(=O)c1ccc(N2CCC(=NOC3CCN(c4ccnc(Cl)n4)CC3)CC2)c(F)c1 [Example 63-5]
The 32nd table, read-out: EC50
  EC50: > 10000 nM

## CNC(=O)c1cc(F)c(N2CCC(=NOC3CCN(Cc4ccc(-c5ccccn5)cc4)CC3)CC2)cc1F [Example 66-65]
[5]
  EC50: 792 nM

## CC(C)OC(=O)N1CCC(ON=C2CCN(c3cc(F)c(S(C)(=O)=O)cc3F)CC2)CC1 [Example 2-60]
[2]
  EC50: 28 nM

## CC(C)OC(=O)N1CCC(ON=C2CCN(c3cc(F)c(C(=O)NCCN)cc3F)CC2)CC1 [Example 31-2]
[2]
  EC50: 348 nM

## CNC(=O)c1cc(F)c(N2CCC(=NOC3CCN(Cc4ccc(C(F)(F)F)cc4)CC3)CC2)cc1F [Example 66-67]
[5]
  EC50: 155 nM

## CC(C)OC(=O)N1CCC(ON=C2CCN(c3ncc(Cl)c(Cl)n3)CC2)CC1 [Example 2-50]
[2]
  EC50: > 10000 nM

## CCOC(=O)Nc1cc(F)c(N2CCC(=NOC3CCN(C(=O)OC(C)C)CC3)CC2)cc1F [Example 35-2]
[2]
  EC50: 18 nM

## CC(C)S(=O)(=O)N1CCC(ON=C2CCN(c3ccc(S(C)(=O)=O)cc3F)CC2)CC1 [Example 65-16]
[3]
  EC50: > 10000 nM

## Cc1cnn(Cc2cnc(N3CCC(=NOC4CCN(C(=O)OC(C)C)CC4)CC3)c(F)c2)c1 [Example 54-1, 4-[3′-Fluoro-5′-(4-methyl-pyrazol-1-ylmethyl)-2,3,5,6-tetrahydro-[1,2]bipyridinyl-4-ylideneaminooxy]-piperidine-1-carboxylic acid isopropyl ester]
The 30th table, read-out: EC50
  EC50: 445 nM

## CC(C)OC(=O)N1CCC(ON=C2CCN(c3cc(F)c(Cn4cnc5ccncc54)cc3F)CC2)CC1 [Example 14-8]
[2]
  EC50: 763 nM

## CS(=O)(=O)c1ccc(N2CCC(=NOC3CCN(Cc4ncco4)CC3)CC2)c(F)c1 [Example 66-20]
[1]
  EC50: > 10000 nM

## CC(C)OC(=O)N1CCC(ON=C2CCN(c3nc(C=O)c(Cl)s3)CC2)CC1 [Example 2-25]
[2]
  EC50: > 10000 nM

## CCc1cnc(N2CCC(ON=C3CCN(c4cc(F)c(CC(=O)N5CC[C@H](N)C5)cc4F)CC3)CC2)nc1 [Example 77-12]
The 44th table, compounds 77-1 to 77-14, read-out: EC50
  EC50: 19 nM

## CC(C)OC(=O)N1CCC(ON=C2CCN(c3cc(F)c(C(=N)N)cc3F)CC2)CC1 [Example 23-1, 4-[1-(4-Carbamimidoyl-2,5-difluoro-phenyl)-piperidin-4-ylideneaminooxy]-piperidine-1-carboxylic acid isopropyl ester]
  activation at 10 µM: 3%

## COC(=O)[C@@H](C)COC(=O)N1CCC(ON=C2CCN(c3ccc(S(C)(=O)=O)cc3F)CC2)CC1 [Example 64-23]
The 33rd table, read-out: EC50
  EC50: 928 nM

## CC(C)OC(=O)N1CCC(ON=C2CCN(c3cc(F)c(C(N)=O)cc3F)CC2)CC1 [Example 2-32]
[2]
  EC50: 25 nM

## CCc1ccc([C@@H](C)N2CCC(ON=C3CCN(c4cc(F)c(S(C)(=O)=O)cc4F)CC3)CC2)cc1 [Example 66-64]
[6]
  EC50: > 10000 nM

## CC(C)OC(=O)N1CCC(ON=C2CCN(c3cc(F)c(CC(=O)N4CCC(CN(C)C)CC4)cc3F)CC2)CC1 [Example 75-38]
[7]
  EC50: 92 nM

## CC(C)OC(=O)N1CCC(ON=C2CCN(c3cc(F)c([N+](=O)[O-])cc3F)CC2)CC1 [Example 2-62]
[2]
  EC50: 304 nM

## CC(C)OC(=O)N1CCC(ON=C2CCN(c3cc(F)c(CC(=O)N4CCC[C@@H]4CN4CCCC4)cc3F)CC2)CC1 [Example 75-28]
[7]
  EC50: 246 nM

## CCCc1ccc(CN2CCC(ON=C3CCN(c4cc(F)c(S(C)(=O)=O)cc4F)CC3)CC2)cc1F [Example 66-60]
[6]
  EC50: 31 nM

## CN1CCC(OC(=O)N2CCC(ON=C3CCN(c4ccc(S(C)(=O)=O)cc4F)CC3)CC2)C1 (stereo not shown) [Example 64-13]
The 33rd table, read-out: EC50
  EC50: > 10000 nM

## CS(=O)(=O)c1ccc(N2CCC(=NOC3CCN(Cc4cccc(C(F)(F)F)c4)CC3)CC2)c(F)c1 [Example 66-30]
[1]
  EC50: 1740 nM

## CC(C)OC(=O)N1CCC(ON=C2CCN(c3cc(F)c(C(=O)N4CCC(CN(C)C)CC4)cc3F)CC2)CC1 [Example 29-47]
The 15th table, read-out: EC50
  EC50: 264 nM

## CS(=O)(=O)c1ccc(N2CCC(=NOC3CCN(c4nccc(Cl)n4)CC3)CC2)c(F)c1 [Example 63-6]
The 32nd table, read-out: EC50
  EC50: 1340 nM

## C=C(C)OC(=O)N1CCC(ON=C2CCN(c3ccc(S(C)(=O)=O)cc3F)CC2)CC1 [Example 65-15]
[3]
  EC50: 64 nM

## CC(C)OC(=O)N1CCC(ON=C2CCN(c3ccc(-c4cnco4)cc3F)CC2)CC1 [Example 20-2]
[2]
  EC50: 498 nM

## CS(=O)(=O)c1ccc(N2CCC(=NOC3CCN(c4ccc(C(F)(F)F)cn4)CC3)CC2)c(F)c1 [Example 63-14]
The 32nd table, read-out: EC50
  EC50: 495 nM

## CC(C)OC(=O)N1CCC(ON=C2CCN(c3cc(F)c(C(=O)N4CCCC(CN5CCCCC5)C4)cc3F)CC2)CC1 (stereo not shown) [Example 29-56]
The 15th table, read-out: EC50
  EC50: 133 nM

## CC(C)OC(=O)N1CCC(ON=C2CCN(c3cc(Br)ccn3)CC2)CC1 [Example 2-67]
  activation at 10 µM: 54%

## CC(C)OC(=O)N1CCC(ON=C2CCN(c3cc(F)c(C4SCCC[S+]4[O-])cc3F)CC2)CC1 (mixture of isomers) [Example 21-1, 4-{1-[2,5-Difluoro-4-(1-oxo-1 lambda*4*-[1,3]dithian-2-yl)-phenyl]-piperidin-4-ylideneaminooxy}-piperidine-1-carboxylic acid isopropyl ester]
[2]
  EC50: 143 nM

## CS(=O)(=O)c1ccc(N2CCC(=NOC3CCN(Cc4ccncc4)CC3)CC2)c(F)c1 [Example 66-4]
[1]
  EC50: > 10000 nM

## CC(C)OC(=O)N1CCC(ON=C2CCN(c3cc(F)c(-n4cccc4)cc3F)CC2)CC1 [Example 22-2]
[2]
  EC50: 767 nM

## CC(C)OC(=O)N1CCC(ON=C2CCN(c3c(Cl)cncc3Cl)CC2)CC1 [Example 2-39]
[2]
  EC50: 1680 nM

## CC(C)OC(=O)N1CCC(ON=C2CCN(c3cc(F)c(-c4cnco4)cc3F)CC2)CC1 [Example 20-1, 4-[1-(2,5-Difluoro-4-oxazol-5-yl-phenyl)-piperidin-4-ylideneaminooxy]-piperidine-1-carboxylic acid isopropyl ester]
[2]
  EC50: 100 nM

## C/C=C/c1ccc(CN2CCC(ON=C3CCN(c4cc(F)c(S(C)(=O)=O)cc4F)CC3)CC2)cc1F [Example 66-61]
[6]
  EC50: 49 nM

## Cc1cccc(N2CCC(=NOC3CCN(C(=O)OC(C)C)CC3)CC2)n1 [Example 2-8]
[2]
  EC50: > 10000 nM

## CC(C)OC(=O)N1CCC(ON=C2CCN(c3cc(F)c(CC(=O)N4CCC(N)CC4)cc3F)CC2)CC1 [Example 75-12]
[7]
  EC50: 92 nM

## Cc1cccc(CN2CCC(ON=C3CCN(c4ccc(S(C)(=O)=O)cc4F)CC3)CC2)c1 [Example 66-25]
[1]
  EC50: 605 nM

## CCc1cnc(N2CCC(ON=C3CCN(c4cc(F)c(C(=O)NCC5CCCN5)cc4F)CC3)CC2)nc1 (stereo not shown) [Example 29-122]
[4]
  EC50: 176 nM

## Cn1cc(Cl)c(CN2CCC(ON=C3CCN(c4ccc(S(C)(=O)=O)cc4F)CC3)CC2)n1 [Example 66-5]
[1]
  EC50: > 10000 nM
